Laboratory results from patent US11717561B2, “Multimodal antimicrobial therapy” (Longhorn Vaccines and Diagnostics, LLC, priority 2013, dated 2023).
Like-named read-outs stand apart in the source and are kept apart here.

Tests used:
[1] = tested on: Mycobacterium smegmatis (MS); assay: Effect of antibiotics and lysostaphin on growth/lysis of live M. smegmatis, % T at 650 nm; assay type: cell-based
[2] = tested on: ethanol-killed MTB; assay type: cell-based, M. tuberculosis; settings: 375 μg/ml
[3] = Imp 1 mg/ml, Lysostaphin 0 units/ml
[4] = Rif 1 mg/ml, Lysostaphin 0 units/ml

## C[C@@H](O)[C@H]1C(=O)N2C(C(=O)O)=C(SCCNC=N)C[C@H]12.O [Imp, Imipenem monohydrate]
[1]; Imipenem 1.0 mg/ml without lysostaphin
  % Transmission (% T) change from baseline (negative equals growth, positive equals lysis/killing): +12.54 % T
[1]; [3]
  % T 5 min: 78.00%
  % T 3 hours: 82.67%
  % T 20 hours: 90.54%

## CO[C@H]1/C=C/O[C@@]2(C)Oc3c(C)c(O)c4c(O)c(c(/C=N/N5CCN(C)CC5)c(O)c4c3C2=O)NC(=O)/C(C)=C\C=C\[C@H](C)[C@H](O)[C@@H](C)[C@@H](O)[C@@H](C)[C@H](OC(C)=O)[C@@H]1C [Rif, Rifampicin]
[1]; [4]
  % T 5 min: 79.25%
  % T 3 hours: 75.27%
  % T 20 hours: 71.79%

## Lysostaphin: natural lysostaphin from S. staphylolyticus (Sigma Cat L7386), a 27 kD glycylglycine endopeptidase
[1]; Lysostaphin alone 200 units/ml
  % T 5 min: 77.34%
  % T 3 hours: 71.54%
  % T 20 hours: 45.47%

## Recombinant Lysostaphin: recombinant simulans lysostaphin produced in E. coli (Sigma-Aldrich)
[2]; bacterial dilution 1:2
  % T at 3 min: 86.268%
  % T at 10 min: 91.59%
  % T at 20 min: 92.587%
[2]; bacterial dilution 1:4
  % T at 3 min: 95.356%
  % T at 10 min: 77.33%
  % T at 20 min: 92.651%
[2]; bacterial dilution 1:8
  % T at 3 min: 97.308%
  % T at 10 min: 98.03%
  % T at 20 min: 98.186%
